Reference: ChEMBL document CHEMBL1201862, “PubChem BioAssay data set” (2004)
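Results reflect a 48-hour exposure of cells in 96-well plates to compound at five concentrations. Abbreviation: GI50, concentration required for 50% inhibition of growth.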 The source made the active and inactive calls. No stated cut-off is given here; in the data, active = GI50 up to about 1.1 µM and inactive = higher.

Legend:
Test in all cases: NCI tumour cell line growth inhibition, 48 h
SF-539 = test system: SF-539
SNB-19 = test system: SNB-19
OVCAR-5 = test system: OVCAR-5
EKVX = test system: EKVX
CCRF-CEM = test system: CCRF-CEM
OVCAR-8 = test system: OVCAR-8
MOLT-4 = test system: MOLT-4
MCF7 = test system: MCF7
UO-31 = test system: UO-31
HT-29 = test system: HT-29
CAKI-1 = test system: CAKI-1
SR = test system: SR
BT-549 = test system: BT-549
OVCAR-4 = test system: OVCAR-4
M14 = test system: M14
DU-145 = test system: DU-145
MDA-N = test system: MDA-N
SK-MEL-2 = test system: SK-MEL-2
SK-OV-3 = test system: SK-OV-3
HCC 2998 = test system: HCC 2998

In the case of `Clc1nss/c1=N/c1nonc1-c1ccccc1`, the GI50 (SF-539) is reported as 22.7 µM (inactive), the GI50 (SNB-19) is reported as 55.6 µM (inactive) and the GI50 (OVCAR-5) is reported as 19.5 µM (inactive). For the same compound, the GI50 (EKVX) was 37.4 µM (inactive), the GI50 (CCRF-CEM) was 17.9 µM (inactive) and the GI50 (OVCAR-8) was 28.6 µM (inactive). For the same compound, the GI50 (MOLT-4) was 25.1 µM (inactive), the GI50 (MCF7) was 22.7 µM (inactive) and the GI50 (UO-31) was 17.6 µM (inactive). The GI50 (HT-29) was 22 µM (inactive), the GI50 (CAKI-1) was 17.1 µM (inactive) and the GI50 (SR) was 18.4 µM (inactive). The GI50 (BT-549) was 29.6 µM (inactive), the GI50 (OVCAR-4) was 49.9 µM (inactive) and the GI50 (M14) was 16 µM (inactive). The GI50 (DU-145) was 22.7 µM (inactive), the GI50 (MDA-N) was 20.1 µM (inactive) and the GI50 (SK-MEL-2) was 34.9 µM (inactive). The GI50 (SK-OV-3) was > 100 µM (inactive) and the GI50 (HCC 2998) was > 100 µM (inactive).
With `CC1CC2CCCC(=O)C2=C(O)O1` (stereo not given) the GI50 (SF-539) was > 100 µM (inactive), the GI50 (SNB-19) was 31.6 µM (inactive) and the GI50 (OVCAR-5) was > 100 µM (inactive). The GI50 (EKVX) was 86.7 µM (inactive), the GI50 (CCRF-CEM) was > 100 µM (inactive) and the GI50 (OVCAR-8) was > 100 µM (inactive). For the same compound, the GI50 (MOLT-4) was > 100 µM (inactive), the GI50 (MCF7) was > 100 µM (inactive) and the GI50 (UO-31) was > 100 µM (inactive). For the same compound, the GI50 (HT-29) was > 100 µM (inactive), the GI50 (CAKI-1) was > 100 µM (inactive) and the GI50 (SR) was > 100 µM (inactive). For the same compound, the GI50 (BT-549) was 81.5 µM (inactive), the GI50 (OVCAR-4) was > 100 µM (inactive) and the GI50 (M14) was > 100 µM (inactive). For the same compound, the GI50 (DU-145) was > 100 µM (inactive), the GI50 (MDA-N) was > 100 µM (inactive) and the GI50 (SK-MEL-2) was > 100 µM (inactive). For the same compound, the GI50 (SK-OV-3) was > 100 µM (inactive) and the GI50 (HCC 2998) was > 100 µM (inactive).
In the case of `Cc1cc(C)c(S(=O)(=O)N(CCCN)OCCON(CCCN)S(=O)(=O)c2c(C)cc(C)cc2C)c(C)c1`, the GI50 (SF-539) is reported as 2.49 µM (inactive), the GI50 (SNB-19) is reported as 2.08 µM (inactive) and the GI50 (OVCAR-5) is reported as 2.24 µM (inactive). The GI50 (EKVX) was 5.24 µM (inactive), the GI50 (CCRF-CEM) was 2.71 µM (inactive) and the GI50 (OVCAR-8) was 12.6 µM (inactive). The GI50 (MOLT-4) was 2.64 µM (inactive), the GI50 (MCF7) was 2.59 µM (inactive) and the GI50 (UO-31) was 23.3 µM (inactive). The GI50 (HT-29) was 10 µM (inactive), the GI50 (CAKI-1) was 26.2 µM (inactive) and the GI50 (SR) was 3.12 µM (inactive). For the same compound, the GI50 (BT-549) was 7.78 µM (inactive), the GI50 (OVCAR-4) was 3.3 µM (inactive) and the GI50 (M14) was 2.75 µM (inactive). The GI50 (DU-145) was 5.68 µM (inactive), the GI50 (MDA-N) was 2.74 µM (inactive) and the GI50 (SK-MEL-2) was 1.64 µM (inactive). The GI50 (SK-OV-3) was 5.01 µM (inactive) and the GI50 (HCC 2998) was 1.9 µM (inactive).
With `Cc1ccc2c(c1)c1ccc3c(c1n2C)C(=O)C=CC3=O` the GI50 (SF-539) was 2.32 µM (inactive), the GI50 (SNB-19) was > 10 µM (inactive) and the GI50 (OVCAR-5) was > 10 µM (inactive). The GI50 (EKVX) was > 4.85 µM (inactive), the GI50 (CCRF-CEM) was 0.284 µM (active) and the GI50 (OVCAR-8) was 2.18 µM (inactive). For the same compound, the GI50 (MOLT-4) was 0.76 µM (active), the GI50 (MCF7) was 1.8 µM (inactive) and the GI50 (UO-31) was 1.41 µM (inactive). For the same compound, the GI50 (HT-29) was > 10 µM (inactive), the GI50 (CAKI-1) was 2.36 µM (inactive) and the GI50 (SR) was 0.27 µM (active). The GI50 (BT-549) was 1.36 µM (inactive), the GI50 (OVCAR-4) was 2.32 µM (inactive) and the GI50 (M14) was 2.05 µM (inactive). The GI50 (DU-145) was 7.33 µM (inactive), the GI50 (MDA-N) was 1.73 µM (inactive) and the GI50 (SK-MEL-2) was 7.48 µM (inactive). For the same compound, the GI50 (SK-OV-3) was > 10 µM (inactive) and the GI50 (HCC 2998) was 9.77 µM (inactive).
`O=C(O)c1ccc(NC(c2ccccc2)c2ccc3cccnc3c2O)cc1` (stereo not given) was tested, and the GI50 (SF-539) was 5.66 µM (inactive), the GI50 (SNB-19) was 6.7 µM (inactive) and the GI50 (OVCAR-5) was 16.8 µM (inactive). For the same compound, the GI50 (EKVX) was 7.85 µM (inactive), the GI50 (CCRF-CEM) was 1.72 µM (inactive) and the GI50 (OVCAR-8) was 3.85 µM (inactive). For the same compound, the GI50 (MOLT-4) was 3.56 µM (inactive), the GI50 (MCF7) was 4.42 µM (inactive) and the GI50 (UO-31) was 5.75 µM (inactive). The GI50 (HT-29) was 5.15 µM (inactive), the GI50 (CAKI-1) was 7.83 µM (inactive) and the GI50 (SR) was 3.32 µM (inactive). For the same compound, the GI50 (BT-549) was 10 µM (inactive), the GI50 (OVCAR-4) was 4.63 µM (inactive) and the GI50 (M14) was 6.19 µM (inactive). For the same compound, the GI50 (DU-145) was 17.7 µM (inactive), the GI50 (MDA-N) was 17.5 µM (inactive) and the GI50 (SK-MEL-2) was 26.1 µM (inactive). The GI50 (SK-OV-3) was 13.6 µM (inactive) and the GI50 (HCC 2998) was 13 µM (inactive).
In the case of `COc1ccc(-c2cn3c(nc4ccccc43)c(C)n2)cc1`, the GI50 (SF-539) is reported as 76.7 µM (inactive), the GI50 (SNB-19) is reported as 44.9 µM (inactive) and the GI50 (OVCAR-5) is reported as > 78.5 µM (inactive). The GI50 (EKVX) was 83 µM (inactive), the GI50 (CCRF-CEM) was > 100 µM (inactive) and the GI50 (OVCAR-8) was 34.4 µM (inactive). For the same compound, the GI50 (MOLT-4) was > 100 µM (inactive), the GI50 (MCF7) was 12.2 µM (inactive) and the GI50 (UO-31) was 13.7 µM (inactive). The GI50 (HT-29) was > 100 µM (inactive), the GI50 (CAKI-1) was 52.1 µM (inactive) and the GI50 (SR) was > 77.4 µM (inactive). The GI50 (BT-549) was 33.7 µM (inactive), the GI50 (OVCAR-4) was 47.6 µM (inactive) and the GI50 (M14) was > 100 µM (inactive). For the same compound, the GI50 (DU-145) was 51.1 µM (inactive), the GI50 (MDA-N) was > 100 µM (inactive) and the GI50 (SK-MEL-2) was 44.9 µM (inactive). The GI50 (SK-OV-3) was 10.2 µM (inactive) and the GI50 (HCC 2998) was > 100 µM (inactive).
In the case of `COc1ccc(C(OCC2OC(n3cc(C)c(=O)[nH]c3=O)CC2n2cc(Cn3cc(Cl)c(=O)[nH]c3=O)nn2)(c2ccccc2)c2ccccc2)cc1` (stereo not given), the GI50 (SF-539) is reported as > 100 µM (inactive), the GI50 (SNB-19) is reported as > 100 µM (inactive) and the GI50 (OVCAR-5) is reported as > 100 µM (inactive). The GI50 (EKVX) was > 100 µM (inactive), the GI50 (CCRF-CEM) was 2.95 µM (inactive) and the GI50 (OVCAR-8) was > 100 µM (inactive). The GI50 (MOLT-4) was 4.7 µM (inactive), the GI50 (MCF7) was 21.8 µM (inactive) and the GI50 (UO-31) was > 100 µM (inactive). The GI50 (HT-29) was > 100 µM (inactive), the GI50 (CAKI-1) was > 100 µM (inactive) and the GI50 (SR) was 4.02 µM (inactive). The GI50 (BT-549) was 82.6 µM (inactive), the GI50 (OVCAR-4) was > 100 µM (inactive) and the GI50 (M14) was > 100 µM (inactive). For the same compound, the GI50 (DU-145) was > 100 µM (inactive), the GI50 (MDA-N) was 9.14 µM (inactive) and the GI50 (SK-MEL-2) was > 100 µM (inactive). The GI50 (SK-OV-3) was > 100 µM (inactive) and the GI50 (HCC 2998) was > 100 µM (inactive).
